Data: paper PMC12005307, “A biofilm-targeting lipo-peptoid to treat Pseudomonas aeruginosa and Staphylococcus aureus co-infections” (Biofilm, 2025)
Converted amounts (≈) assume the structure as drawn. Where two headings read alike, the source gives them in different places.

Legend:
P. aeruginosa LESB58 [1] = experiment: MIC, broth microdilution; format: cell-based; conditions: Pseudomonas aeruginosa
Method: (§1) Minimum inhibitory concentrations (MIC) were determined using an adapted broth microdilution method in Greiner bio flat chimney polypropylene 96-well plates. P. aeruginosa was used at 1 × 10^6 CFU/mL and S. aureus at 5 × 10^6 CFU/mL in MHB (Oxoid) and DFG, respectively. A separate polypropylene plate was used to prepare two-fold peptoid dilutions in PBS pH 7.5 (Gibco). Bacterial growth was determined by visible turbidity after incubation at 37 °C for 16 h (S. aureus) or 24 h (P. aeruginosa). MIC values were determined as the lowest concentration of the drug where no bacterial growth was visible. Metabolic activity (color change from blue to pink) was further determined by adding the metabolic dye PrestoBlue™ (Invitrogen) to each well for 30 min as confirmation of visual determination. All tests were performed in triplicate.

S. aureus USA300 LAC [2] = experiment: MIC, broth microdilution; format: cell-based; conditions: Staphylococcus aureus, Table S6, antibiotic screen, medium not given
Method: as §1

P. aeruginosa LESB58 [3] = experiment: Checkerboard titration assay (in vitro synergy); format: cell-based, Pseudomonas aeruginosa; conditions: DFG; for Fold decrease in TM18 MIC: TM18 in combination with the named antibiotic; for Fold decrease in TM18 MIC / FICI, antibiotic combination with TM18: checkerboard; for Fold decrease in antibiotic MIC: antibiotic in combination with TM18, checkerboard; for FICI, antibiotic combination with TM18: 1 × 10^6 CFU/mL, 37 °C, 16–24 h, >0.5 and <=1 additive
Method: (§2) Each compound was serially diluted in PBS before transferring to a 96-well plate containing 1 × 10^6 CFU/mL P. aeruginosa or S. aureus, respectively, in DFG medium and incubated at 37 °C for 16–24 h. The MIC or combinatorial effect was determined as the lowest concentration with no visible growth and the fractional inhibitory concentration index (FICI) was calculated as [(MICA in combination)/MICA] + [(MICB in combination)/MICB] as previously. FICIs ≤ 0.5 indicate synergy, 0.5–1 indicate additivity and values above 1 indicate indifference or antagonism.

S. aureus USA300 LAC [4] = experiment: Checkerboard titration assay (in vitro synergy); format: cell-based, Staphylococcus aureus; conditions: DFG; for Fold decrease in TM18 MIC: TM18 in combination with the named antibiotic; for Fold decrease in TM18 MIC / FICI, antibiotic combination with TM18: checkerboard; for Fold decrease in antibiotic MIC: antibiotic in combination with TM18, checkerboard; for FICI, antibiotic combination with TM18: 1 × 10^6 CFU/mL, 37 °C, 16–24 h, >0.5 and <=1 additive
Method: as §2

[5] = system: P. aeruginosa LESB58 and S. aureus USA300 LAC; experiment: Murine skin abscess model, co-infection, abscess size; format: in vivo, Pseudomonas aeruginosa and Staphylococcus aureus; conditions: 2.5 × 10^7 CFU of each species s.c., 5 mg/kg of each agent intra-abscess after 1 h
Method: (§3) The abscess model was performed as described previously for mono-species infections and modified as follows for dual-species infection. P. aeruginosa and S. aureus were grown individually to an OD600 of 1.0 in dYT broth. Bacterial cells were washed twice in PBS pH 7.4 (Gibco) and resuspended to an OD600 of 2.0 for S. aureus (∼2.5 × 10^7) and 1.0 for P. aeruginosa (∼2.5 × 10^7). For co-infections, P. aeruginosa and S. aureus were mixed (1:1) immediately before injecting 50 μL subcutaneously into the right side of the dorsum. TM1, TM14, TM18, or sterile PBS were injected directly into the infected area 1-h post-infection at a concentration of 5 mg/kg which was the highest concentration determined as non-toxic in our murine model (Table S10). The progression of the infection was monitored daily. A caliper was used to measure the abscess lesion size manually. The SilhouetteStar™ 3D wound camera and SilhouetteConnect™ software were used to photograph, measure, and analyze abscess lesion sizes (visible dermonecrosis). The skin abscesses (including accumulated pus) were excised and homogenized in sterile PBS using SPEX®SamplePrep 1600 MiniG™ for 5 min. […]
(§4) In vitro experiments were performed with at least three biological replicates. […] The predicted additive effect (PAE) was determined by calculating the sum of CFU log reduction for each individual treatment. […]

S. aureus USA300 LAC [6] = experiment: Murine skin abscess model, co-infection, S. aureus survivors; format: in vivo, Staphylococcus aureus; conditions: 5 mg/kg intra-abscess after 1 h, day 3, CFU on selective agar
Method: as §3, §4

P. aeruginosa LESB58 [7] = experiment: Murine skin abscess model, co-infection, P. aeruginosa survivors; format: in vivo, Pseudomonas aeruginosa; conditions: 5 mg/kg intra-abscess after 1 h, day 3, CFU on selective agar
Method: as §3, §4

[8] = Table S6, antibiotic screen, medium not given, read-out: MIC

MIC (P. aeruginosa LESB58 [1]; [8]) | MIC (S. aureus USA300 LAC [2]) | Fold decrease in TM18 MIC (P. aeruginosa LESB58 [3]) | Fold decrease in antibiotic MIC (P. aeruginosa LESB58 [3]) | Fold decrease in TM18 MIC (S. aureus USA300 LAC [4]) | Fold decrease in antibiotic MIC (S. aureus USA300 LAC [4]) | Structure (SMILES) | FICI, antibiotic combination with TM18 (P. aeruginosa LESB58 [3]) | FICI, antibiotic combination with TM18 (S. aureus USA300 LAC [4]) | reduction of abscess sizes ([5]; day 3) | reduction of abscess sizes ([5]; day 3, listed as Meropenem) | reduction of S. aureus survivors (S. aureus USA300 LAC [6]) | MIC (P. aeruginosa LESB58 [1]) | reduction of P. aeruginosa survivors (P. aeruginosa LESB58 [7])
25 µg/mL (≈ 33.4 µM) | 125 µg/mL (≈ 167 µM) | 8 fold | 2 fold | 1 fold | 1 fold | CC[C@H]1OC(=O)[C@H](C)[C@@H](O[C@H]2C[C@@](C)(OC)[C@@H](O)[C@H](C)O2)[C@H](C)[C@@H](O[C@@H]2O[C@H](C)C[C@H](N(C)C)[C@H]2O)[C@](C)(O)C[C@@H](C)CN(C)[C@H](C)[C@@H](O)[C@]1(C)O [AZM, azithromycin] | 0.625 | 1 |  |  |  |  | 
12.5 µg/mL (≈ 22.9 µM) | 31.2 µg/mL (≈ 57.2 µM) | 2 fold | 4 fold | 1 fold | 1 fold | CC(C)(O/N=C(\C(=O)N[C@@H]1C(=O)N2C(C(=O)[O-])=C(C[n+]3ccccc3)CS[C@H]12)c1csc(N)n1)C(=O)O [CAZ, ceftazidime] | 0.75 | 1 |  |  |  |  | 
3.13 µg/mL (≈ 9.45 µM) | 15.6 µg/mL (≈ 47.2 µM) | 1 fold | 2 fold | 4 fold | 2 fold | O=C(O)c1cn(C2CC2)c2cc(N3CCNCC3)c(F)cc2c1=O [CIP, ciprofloxacin] | 1 | 0.75 |  |  |  |  | 
7.81 µg/mL (≈ 16.4 µM) | 0.78 µg/mL (≈ 1.63 µM) | 1 fold | 2 fold | 1 fold | 2 fold | CNC(C)C1CCC(N)C(OC2C(N)CC(N)C(OC3OCC(C)(O)C(NC)C3O)C2O)O1 (stereo not shown) [GEN, gentamicin] | 1 | 1 |  |  |  |  | 
1.56 µg/mL (≈ 3.34 µM) | 0.78 µg/mL (≈ 1.67 µM) | 2 fold | 2 fold | 1 fold | 1 fold | NC[C@H]1O[C@H](O[C@H]2[C@H](O)[C@@H](O[C@H]3O[C@H](CO)[C@@H](O)[C@H](N)[C@H]3O)[C@H](N)C[C@@H]2N)[C@H](N)C[C@@H]1O [tobramycin] | 1 | 1 |  |  |  |  | 

Structure (SMILES) | MIC (P. aeruginosa LESB58 [1]; [8]) | MIC (S. aureus USA300 LAC [2]) | Fold decrease in TM18 MIC (P. aeruginosa LESB58 [3]) | Fold decrease in antibiotic MIC (P. aeruginosa LESB58 [3]) | Fold decrease in TM18 MIC (S. aureus USA300 LAC [4]) | Fold decrease in antibiotic MIC (S. aureus USA300 LAC [4]) | FICI, antibiotic combination with TM18 (P. aeruginosa LESB58 [3]) | FICI, antibiotic combination with TM18 (S. aureus USA300 LAC [4]) | reduction of abscess sizes ([5]; day 3) | reduction of abscess sizes ([5]; day 3, listed as Meropenem) | reduction of S. aureus survivors (S. aureus USA300 LAC [6]) | MIC (P. aeruginosa LESB58 [1]) | reduction of P. aeruginosa survivors (P. aeruginosa LESB58 [7])
C[C@@H](O)[C@H]1C(=O)N2C(C(=O)O)=C(S[C@@H]3CN[C@H](C(=O)N(C)C)C3)[C@H](C)[C@H]12 [meropenem] |  | 0.78 µg/mL (≈ 2.03 µM) | 2 fold | 2 fold | 2 fold | 4 fold | 1 | 0.75 | 78% | 85% | ~10 fold | 1.56 µg/mL (≈ 4.07 µM) | ~100 fold
